# Measured values reported in PMC6476926, “Dichloro-Phenyl-Benzotriazoles: A New Selective Class of Human Respiratory Syncytial Virus Entry Inhibitors” (Frontiers in Chemistry, 2019).
# Experiments:
# CV-B5 = assay: microbe, parasite or virus in culture; type: cell-based, Human Enterovirus B [coxsackie type B5 (CV-B5)]; conditions: Enterovirus B, CVB5, Vero 76, read-out: EC50 CV-B5
# [1] = Cytotoxicity, MTT method, BHK cells; conditions: Syrian hamster (Mesocricetus auratus)
# YFV = assay: microbe, parasite or virus in culture; type: cell-based; conditions: Yellow fever virus, BHK, read-out: EC50 YFV
# RSV = assay: microbe, parasite or virus in culture; type: cell-based, Human Respiratory Syncytial Virus (RSV) strain A2; conditions: human respiratory syncytial virus, Vero 76, read-out: EC50 RSV
# [2] = Cytotoxicity, MTT method, Vero-76 cells; conditions: African green monkey (Cercopithecus aethiops)
# Sb-1, VSV, VV, HSV-1 = assay: organism not typed; type: cell-based; conditions: Vero 76, read-out: EC50 Sb-1, VSV, VV, HSV-1
# in vitro = conditions: cattle (Bos taurus)
# Reo-1 = assay: microbe, parasite or virus in culture; type: cell-based, Reovirus type-1 (Reo-1); conditions: Reovirus sp., BHK, read-out: EC50 Reo-1
# HIV-1IIIB = assay: microbe, parasite or virus in culture; type: cell-based, Human Immunodeficiency Virus type-1 (HIV-1); conditions: Human immunodeficiency virus 1, MT4, read-out: EC50 HIV-1IIIB
# [3] = Cytotoxicity, MTT method, MT-4 cells; conditions: human
# BVDV = assay: microbe, parasite or virus in culture; type: cell-based; conditions: Bovine viral diarrhea virus isolates and strains, MDBK, read-out: EC50 BVDV
Structure (SMILES),EC50 (CV-B5) [µM],CC50 [1] [µM],EC50 (YFV) [µM],EC50 (RSV) [µM],CC50 at 5 days [2] [µM],"EC50 (Sb-1, VSV, VV, HSV-1) [µM]",melting point [°C],CC50 (in vitro) [µM],EC50 (Reo-1) [µM],EC50 (HIV-1IIIB) [µM],CC50 [3] [µM],EC50 (BVDV) [µM],CC50 ([2]; Vero-76 cells (mock-infected)) [µM],"CC50 ([1]; BHK cells (BHK-21, mock-infected)) [µM]",CC50 ([3]; MT-4 cells (mock-infected)) [µM]
"O=C(Nc1ccc(-n2nnc3cc(Cl)c(Cl)cc32)cc1)c1ccc(Cl)cc1 [7f, N-[4-(5,6-dichloro-1H-benzo[d][1,2,3]triazol-1-yl)phenyl] 4-chlorobenzamide]",> 100,84,> 84,8,> 100,> 100,234 to 236,> 100,> 84,> 100,> 100,> 100,,,
"Cc1ccc(C(=O)Nc2ccc(-n3nc4cc(Cl)c(Cl)cc4n3)cc2)cc1 [8b, N-[4-(5,6-dichloro-2H-benzo[d][1,2,3]triazol-2-yl)phenyl]-4-methylbenzamide]",> 100,> 100,73,27,> 100,> 100,210 to 213,> 100,> 100,> 100,> 100,> 100,,,
"Cc1cc(CCCOc2c(C)cc(-c3noc(C(F)(F)F)n3)cc2C)on1 [PCL, Pleconaril, reference compound]",0.005 ± 0.001,,,,,,,,,,,,> 100,,
"Cc1ccc(C(=O)Nc2ccc(-n3nnc4cc(Cl)c(Cl)cc43)cc2)cc1 [7b, N-[4-(5,6-dichloro-1H-benzo[d][1,2,3]triazol-1-yl)phenyl]-4-methylbenzamide]",> 100,> 100,> 100,> 100,> 100,> 100,226 to 228,> 100,> 100,> 100,> 100,> 100,,,
"O=C(Nc1ccc(-n2nc3cc(Cl)c(Cl)cc3n2)cc1)c1ccc(Cl)cc1 [8f, N-[4-(5,6-dichloro-2H-benzo[d][1,2,3]triazol-2-yl)PHENYL] 4-chlorobenzamide]",> 100,> 100,> 100,20,80,> 100,268 to 270,> 100,> 100,> 100,> 100,60,,,
"CC(=O)Nc1ccc(-n2nc3cc(Cl)c(Cl)cc3n2)cc1 [6a, N-[4-(5,6-dichloro-2H-benzo[d][1,2,3]triazol-2-yl)phenyl]acetamide]",> 100,> 100,> 100,> 100,> 100,> 100,> 290,> 100,> 100,> 100,> 100,> 100,,,
"CCC(=O)N(C(=O)CC)c1ccc(-n2nc3cc(Cl)c(Cl)cc3n2)cc1 [6e, N-propionyl-N-[4-(5,6-dichloro-2H-benzo[d][1,2,3]triazol-2-yl)phenyl] propionamide]",61,26,> 26,6,> 100,> 100,238 to 240,72,> 26,> 15,15,> 72,,,
"CCC(=O)Nc1ccc(-n2nc3cc(Cl)c(Cl)cc3n2)cc1 [6b, N-[4-(5,6-dichloro-2H-benzo[d][1,2,3]triazol-2-yl)phenyl]propanamide]",> 100,> 100,> 100,> 100,> 100,> 100,258 to 260,> 100,> 100,> 100,> 100,> 100,,,
"COc1ccc(C(=O)Nc2ccc(-n3nc4cc(Cl)c(Cl)cc4n3)cc2)cc1 [8c, N-[4-(5,6-dichloro-2H-benzo[d][1,2,3]triazol-2-yl)phenyl]-4-methoxybenzamide]",14,,> 100,> 100,> 100,> 100,274 to 276,> 100,> 100,> 100,,> 100,,> 100,> 100
"CCCC(=O)Nc1ccc(-n2nc3cc(Cl)c(Cl)cc3n2)cc1 [6c, N-[4-(5,6-dichloro-2H-benzo[d][1,2,3]triazol-2-yl)phenyl]butanamide]",> 100,> 100,> 100,> 100,> 100,> 100,243 to 245,> 100,> 100,> 100,> 100,> 100,,,
"O=C(Nc1ccc(-n2nnc3cc(Cl)c(Cl)cc32)cc1)c1ccc([N+](=O)[O-])cc1 [7e, N-[4-(5,6-dichloro-1H-benzo[d][1,2,3]triazol-1-yl)phenyl]-4-nitrobenzamide]",> 100,96,> 96,13,> 100,> 100,238 to 240,> 100,> 96,> 100,> 100,> 100,,,
"Nc1ccc(-n2nnc3cc(Cl)c(Cl)cc32)cc1 [1a, 1-(4-aminophenyl)-5,6-dichlorobenzotriazole]",85,> 100,> 100,20,> 100,> 100,,> 100,> 100,> 100,> 100,75,,,
"Cc1ccc(NC(=O)Nc2ccc(-n3nc4cc(Cl)c(Cl)cc4n3)cc2)cc1 [10f, 1-[4-(5,6-dichloro-2H-benzo[d][1,2,3]triazol-2-yl)phenyl]-3-(4-methylphenyl)urea]",> 100,> 100,> 100,> 100,> 100,> 100,,> 100,> 100,> 100,> 100,> 100,,,
"CC(=O)N(C(C)=O)c1ccc(-n2nc3cc(Cl)c(Cl)cc3n2)cc1 [6d, N-acetyl-N-[4-(5,6-dichloro-2H-benzo[d][1,2,3]triazol-2-yl)phenyl]acetamide]",> 100,72,> 72,40,> 100,> 100,224 to 226,100,> 100,> 33,33,> 100,,,
"O=C(Nc1ccc(F)cc1)Nc1ccc(-n2nc3cc(Cl)c(Cl)cc3n2)cc1 [10i, 1-[4-(5,6-dichloro-2H-benzo[d][1,2,3]triazol-2-yl)phenyl]-3-(4-fluorophenyl)urea]",> 100,> 100,> 100,> 100,> 100,> 100,> 290,> 100,> 100,> 100,> 100,> 100,,,
"O=C(Nc1ccc(-n2nnc3cc(Cl)c(Cl)cc32)cc1)c1ccccc1 [7a, N-[4-(5,6-dichloro-1H-benzo[d][1,2,3]triazol-1-yl)phenil]benzamide]",> 100,44,> 44,60,> 100,> 100,250 to 252,> 100,> 44,> 100,> 100,> 100,,,
"CCCC(=O)N(C(=O)CCC)c1ccc(-n2nnc3cc(Cl)c(Cl)cc32)cc1 [5d, N-butyryl-N-[4-(5,6-dichloro-1H-benzo[d][1,2,3]triazol-1-yl)phenyl] butyramide]",> 20,16,> 16,> 30,20,> 20,202 to 204,14,> 16,> 35,35,> 14,,,
"Nc1ccc(-n2nc3cc(Cl)c(Cl)cc3n2)cc1 [1b, 2-(4-aminophenyl)-5,6-dichlorobenzotriazole]",> 100,> 100,> 100,6,> 100,> 100,,≥ 100,> 100,> 52,52,20,,,
"O=C1Nc2ccc(Cl)cc2[C@@](C#CC2CC2)(C(F)(F)F)O1 [EFV, Efavirenz, reference compound]",,,,,,,,,,0.002 ± 0.0002,,,,,40
"C[C@@]1(O)[C@H](O)[C@@H](CO)O[C@H]1n1cnc2c(=O)[nH]c(N)nc21 [2MG, 2’-C-methyl-guanosine, reference compound]",,> 100,1.9 ± 0.1,,,,,> 100,0.7 ± 0.2,,,1.1 ± 0.1,,,
